Data published in patent US20080171750A1, “Modulation Of Neurogenesis With Use of Modafinil” (BrainCells, Inc., priority 2007, published 2008).
Read-outs that look alike come from different tables or passages of the source.

Assays:
mGluR3 = mGluR3 (Homo sapiens, UniProt Q14832); conditions: read-out: IC50 against mGluR3; cited from earlier work
mGluR2 = mGluR2 (Homo sapiens, UniProt Q14416); conditions: read-out: IC50 against mGluR2; cited from earlier work
[1] = test system: Group I or Group III receptors; conditions: at sub-mM concentrations; cited from earlier work
[2] = test system: KA, AMPA, and NMDA iGlu receptors; conditions: cited from earlier work
human mGlu3 receptors = human mGlu3 receptors (Homo sapiens, UniProt Q14832); conditions: low nanomolar range; read-out: EC50 against human mGlu3 receptors in vitro; cited from earlier work
human mGlu2 receptors = human mGlu2 receptors (Homo sapiens, UniProt Q14416); conditions: low nanomolar range; read-out: EC50 against human mGlu2 receptors in vitro; cited from earlier work
[3] = test system: Human neural stem cells (hNSCs); assay: Neuronal differentiation of human neural stem cells (TUJ-1 staining); format: cell-based; conditions: for maximum neuronal differentiation percent of positive control: basal media values subtracted, 0.01 μM to 31.6 μM
Method: Mitogen-free test media with a positive control for neuronal differentiation was used along with basal media without growth factors as a negative control.
The presence of synergy was determined by use of a combination index (CI). […] The CI is a quantitative measure of the nature of drug interactions, comparing the EC50's of two compounds, when each is assayed alone, to the EC50 of each compound when assayed in combination. The combination index (CI) is equal to the following formula: […]
where C1 and C2 are the concentrations of a first and a second compound, respectively, resulting in 50% activity in neuronal differentiation when assayed in combination; and IC1 and IC2 are the concentrations of each compound resulting in 50% activity when assayed independently.

[4] = test system: Human neural stem cells (hNSCs); assay: Astrocyte differentiation of human neural stem cells (GFAP staining); format: cell-based
[5] = Homo sapiens, Neural stem cell, agent alone, concentration response curve 0.01 μM to 31.6 μM (antalarmin to 3.16 μM), modafinil batch of FIG. 1-3, read-out: EC50, neuronal differentiation, agent used alone
[6] = Homo sapiens, Neural stem cell, read-out: EC50, neuronal differentiation, agent alone (FIG. 8 experiment)

mGluR3, sequence (Q14832 23-879): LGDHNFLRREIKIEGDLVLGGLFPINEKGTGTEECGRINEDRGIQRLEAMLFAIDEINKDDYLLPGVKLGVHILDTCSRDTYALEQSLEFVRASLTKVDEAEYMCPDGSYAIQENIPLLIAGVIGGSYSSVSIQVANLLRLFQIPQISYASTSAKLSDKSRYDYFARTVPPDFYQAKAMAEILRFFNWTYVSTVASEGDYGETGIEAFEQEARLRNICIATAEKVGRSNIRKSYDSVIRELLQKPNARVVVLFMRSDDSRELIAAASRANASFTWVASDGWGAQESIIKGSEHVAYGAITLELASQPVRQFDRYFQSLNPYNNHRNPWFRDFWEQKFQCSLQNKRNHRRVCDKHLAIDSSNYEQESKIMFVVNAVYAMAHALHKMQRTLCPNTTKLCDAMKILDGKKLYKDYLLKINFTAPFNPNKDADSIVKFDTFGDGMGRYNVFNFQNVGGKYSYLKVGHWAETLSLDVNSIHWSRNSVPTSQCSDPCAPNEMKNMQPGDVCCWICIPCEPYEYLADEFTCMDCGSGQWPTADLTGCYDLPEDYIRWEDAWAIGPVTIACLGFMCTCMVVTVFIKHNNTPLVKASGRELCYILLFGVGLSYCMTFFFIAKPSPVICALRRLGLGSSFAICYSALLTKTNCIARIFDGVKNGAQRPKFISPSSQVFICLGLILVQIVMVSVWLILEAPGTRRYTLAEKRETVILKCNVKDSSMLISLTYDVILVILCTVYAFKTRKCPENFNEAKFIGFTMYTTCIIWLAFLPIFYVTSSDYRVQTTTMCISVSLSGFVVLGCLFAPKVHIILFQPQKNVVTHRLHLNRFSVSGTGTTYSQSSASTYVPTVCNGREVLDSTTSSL
human mGlu3 receptors, sequence (Q14832 23-879): as above
mGluR2, sequence (Q14416 19-872): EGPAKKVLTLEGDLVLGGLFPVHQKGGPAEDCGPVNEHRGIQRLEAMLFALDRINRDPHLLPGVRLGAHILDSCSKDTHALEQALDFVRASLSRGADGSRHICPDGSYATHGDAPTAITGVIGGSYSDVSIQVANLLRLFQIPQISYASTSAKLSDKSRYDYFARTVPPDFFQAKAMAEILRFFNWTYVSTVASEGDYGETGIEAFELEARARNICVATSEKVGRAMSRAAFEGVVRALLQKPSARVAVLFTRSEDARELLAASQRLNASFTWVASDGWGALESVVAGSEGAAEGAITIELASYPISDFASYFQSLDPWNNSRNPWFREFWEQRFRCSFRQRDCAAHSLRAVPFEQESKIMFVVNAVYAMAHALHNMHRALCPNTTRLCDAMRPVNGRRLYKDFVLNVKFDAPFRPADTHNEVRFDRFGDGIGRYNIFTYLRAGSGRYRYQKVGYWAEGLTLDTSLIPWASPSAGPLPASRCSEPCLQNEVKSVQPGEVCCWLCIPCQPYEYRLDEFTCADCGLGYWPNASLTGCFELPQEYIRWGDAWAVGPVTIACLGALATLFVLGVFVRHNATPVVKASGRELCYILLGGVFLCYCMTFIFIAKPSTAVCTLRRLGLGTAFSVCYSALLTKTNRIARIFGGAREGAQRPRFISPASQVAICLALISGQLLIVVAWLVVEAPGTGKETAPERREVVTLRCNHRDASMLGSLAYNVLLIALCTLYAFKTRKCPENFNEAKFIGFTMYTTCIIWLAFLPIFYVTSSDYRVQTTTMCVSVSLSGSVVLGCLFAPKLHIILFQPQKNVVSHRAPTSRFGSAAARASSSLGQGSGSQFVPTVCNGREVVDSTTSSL
human mGlu2 receptors, sequence (Q14416 19-872): as above

For NC1(C(=O)O)CCc2cc(P(=O)(O)O)ccc21 (racemic) [APICA, (RS)-1-amino-5-phosphonoindan-1-carboxylic acid], the IC50 (mGluR3) is given as about 30 µM, the IC50 (mGluR2) is given as about 30 µM and the “activity against Group I or Group III receptors” value [1] is given as “no appreciable activity”.
In the case of N[C@](CC1c2ccccc2Oc2ccccc21)(C(=O)O)[C@H]1C[C@@H]1C(=O)O [LY341495, (2S)-2-amino-2-(1S,2S-2-carboxycycloprop-1-yl)-3-(xanth-9-yl) propanoic acid], the “activity against KA, AMPA, and NMDA iGlu receptors” value [2] is listed as “substantially inactive”.
For N[C@@]1(C(=O)O)CO[C@H]2[C@H](C(=O)O)[C@H]21 [LY379268, (−)-2-Oxa-4-aminobicyclohexane-4,6-dicarboxylic acid], the EC50 (human mGlu3 receptors) is given as under 0.01 µM and the EC50 (human mGlu2 receptors) is given as under 0.01 µM.
With Cc1oc2nc3c(c(NC(=O)CN4CCCC4=O)c2c1C)CCCC3 [MKC-231] the EC50 ([3]; agent alone, concentration response curve 0.01 μM to 31.6 μM (antalarmin to 3.16 μM), modafinil batch of FIG. 1-3, read-out: EC50, neuronal differentiation, agent used alone) was 3.9 µM and the “maximum neuronal differentiation percent of positive control” value (shortened to “maximum neuronal differentiation percent”) [3] was 53%.
In the case of CC(=O)NCCCS(=O)(=O)O [acamprosate], the EC50 [3, 5] is reported as about 39.2 µM.
Work on CCCCN(CC)c1nc(C)nc2c1c(C)c(C)n2-c1c(C)cc(C)cc1C [antalarmin] yielded an EC50 [3, 5] of about 34.9 µM.
Work on NC(=O)C[S@@+]([O-])C(c1ccccc1)c1ccccc1 [armodafinil, (−)-2-[(R)-(diphenylmethyl)-sulfinyl]acetamide] yielded an EC50 [3, 6] of about 1.24 µM.
CN1C(=O)COc2c(C(=O)NC3CN4CCC3CC4)cc(Cl)cc21 (stereo not shown) [azasetron] showed an EC50 [3, 5] of about 9.1 µM.
In the case of O=C1CC2(CCCC2)CC(=O)N1CCCCN1CCN(c2ncccn2)CC1 [buspirone], the “maximum astrocyte differentiation percent of positive control” value ([4]; basal media values subtracted, 0.01 μM to 31.6 μM) is reported as 59%, the EC50 [3, 5] is reported as 8.4 µM and the “maximum neuronal differentiation percent” value [3] is reported as 52%.
With NC(=O)C[S+]([O-])C(c1ccccc1)c1ccccc1 (stereo not shown) [modafinil, 2-benzhydrylsulfinylethanamide] the astrogenesis produced ([4]; modafinil alone) was “little or no astrogenesis”, the EC50 [3, 6] was 1.93 µM and the EC50 ([3]; Homo sapiens, Neural stem cell, read-out: EC50, neuronal differentiation, agent used alone) was over 31.6 µM. For the same compound, the EC50 ([3]; Homo sapiens, Neural stem cell, read-out: EC50, neuronal differentiation, modafinil alone (batch 2)) was 2.9 µM, the EC50 ([3]; Homo sapiens, Neural stem cell, read-out: EC50 of modafinil alone, estimated based on extrapolation) was about 83 µM and the “maximum neuronal differentiation percent” value [3] was 19%.
NCCc1c[nH]c2ccc(O)cc12 [serotonin, 5-hydroxytryptamine] gave an EC50 [3, 5] of about 6.9 µM.
